# Assay results published in patent US20150359220A1, “COMPOSITIONS COMPRISING GOUGEROTIN AND A FUNGICIDE” (BAYER CROPSCIENCE LP, priority 2013, published 2015).
# Counter-ions that a name gives are not always drawn. Like-named read-outs stand apart in the source and are kept apart here.
# Columns and labels:
# Venturia inaequalis = assay: Venturia test (apples)/preventive; conditions: for Efficacy in % found: 10 days after inoculation
# Procedure: After the spray coating has dried on, the plants are inoculated with an aqueous conidia suspension of the causal agent of apple scab (Venturia inaequalis) and then remain for 1 day in an incubation cabinet at approximately 20° C. and a relative atmospheric humidity of 100%. The plants are then placed in a greenhouse at approximately 21° C. and a relative atmospheric humidity of approximately 90%.
# The test is evaluated 10 days after the inoculation.
# [1] = test system: Blumeria graminis fsp. hordei; assay: Blumeria test (barley)/preventive; type: in vivo; conditions: 7 days after inoculation
# Alternaria solani = assay: Alternaria test (tomatoes)/preventive; type: in vivo; conditions: 3 days after inoculation
# Phytophthora infestans = assay: whole plant or invertebrate; type: in vivo; conditions: for Efficacy in % found: 3 days after inoculation
# Puccinia triticina = assay: Puccinia triticina-test (wheat)/preventive; type: in vivo; conditions: 8 days after inoculation
# Sphaerotheca fuliginea = assay: Sphaerotheca test (cucumbers)/preventive; type: in vivo
# Botrytis cinerea = assay: Botrytis test (beans)/preventive; conditions: Table 7, size of lesions 2 days after inoculation
# Procedure: After the spray coating has dried on, 2 small pieces of agar covered with growth of Botrytis cinerea are placed on each leaf. The inoculated plants are placed in a darkened chamber at 20° C. and a relative atmospheric humidity of 100%.
# 2 days after the inoculation, the size of the lesions on the leaves is evaluated.
# Septoria tritici = assay: Septoria tritici-test (wheat)/preventive; type: in vivo; conditions: 21 days after inoculation
# Pyrenophora teres = assay: Pyrenophora teres-test (barley)/preventive; type: in vivo; conditions: 8 days after inoculation
# [2] = test system: gram-positive, gram-negative bacteria and tubercule bacillus; conditions: according to U.S. Pat. No. 3,849,398; cited from earlier work
# [3] = test system: parasites on animals, such as pin worm; conditions: according to U.S. Pat. No. 3,849,398; cited from earlier work
# [4] = Venturia inaequalis, 240 h, read-out: Efficacy in % found
# [5] = Alternaria solani, topical, 72 h, Table 2, 2 ppm a.i., read-out: Efficacy in % found
# [6] = Phytophthora infestans, topical, 72 h, read-out: Efficacy in % found
# [7] = Podosphaera fuliginea, 168 h, Table 19, 1 ppm a.i., 7 days after inoculation, read-out: Efficacy in % found
# [8] = Alternaria solani, topical, 72 h, Table 4, 50 ppm a.i., read-out: Efficacy in % found
# [9] = Podosphaera fuliginea, 168 h, Table 20, 100 ppm a.i., 7 days after inoculation, read-out: Efficacy in % found
# [10] = Table 18, 0.5 ppm a.i., 7 days after inoculation
# [11] = Table 18, 100 ppm a.i., 7 days after inoculation
# [12] = Table 19, 20 ppm a.i., 7 days after inoculation
molecule,measurement,setting,value
"CC1COC(Cn2cncn2)(c2ccc(Oc3ccc(Cl)cc3)cc2Cl)O1 (stereo not shown) [F7, difenoconazole]",pest or weed control at 1 ppm,Venturia inaequalis; [4],38%
same,Efficacy in % found,"[1]; Table 6, 62.5 ppm a.i.",44%
same,Efficacy in % found,"[1]; Table 6, 125 ppm a.i.",67%
same,pest or weed control at 2 ppm,Alternaria solani; [5],30%
same,pest or weed control at 100 ppm,Phytophthora infestans; [6],0%
same,Efficacy in % found,"Puccinia triticina; Table 13, 31.25 ppm a.i.",30%
same,Efficacy in % found,"Puccinia triticina; Table 13, 62.5 ppm a.i.",60%
same,pest or weed control at 1 ppm,Sphaerotheca fuliginea; [7],0%
"CC1(C(=O)Nc2ccc(O)c(Cl)c2Cl)CCCCC1 [F16, fenhexamid]",pest or weed control at 25 ppm,Venturia inaequalis; [4],0%
same,pest or weed control at 50 ppm,Alternaria solani; [8],50%
same,pest or weed control at 100 ppm,Phytophthora infestans; [6],0%
same,pest or weed control at 100 ppm,Sphaerotheca fuliginea; [9],0%
"OC(Cc1ccccc1Cl)(Cn1nc[nH]c1=S)C1(Cl)CC1 (stereo not shown) [F41, prothioconazole]",pest or weed control at 1 ppm,Venturia inaequalis; [4],0%
same,pest or weed control at 2 ppm,Alternaria solani; [5],0%
same,pest or weed control at 100 ppm,Phytophthora infestans; [6],45%
same,pest or weed control at 1 ppm,Sphaerotheca fuliginea; [7],43%
"CCCN(CC)CC1COC2(CCC(C(C)(C)C)CC2)O1 (stereo not shown) [F46, spiroxamine]",pest or weed control at 50 ppm,Venturia inaequalis; [4],0%
same,Efficacy in % found,"[1]; Table 6, 125 ppm a.i.",11%
same,pest or weed control at 50 ppm,Alternaria solani; [8],46%
same,pest or weed control at 100 ppm,Sphaerotheca fuliginea; [9],30%
same,Efficacy in % found,Botrytis cinerea; 100 ppm a.i.,14%
"CC(C)(C)C(O)(CCc1ccc(Cl)cc1)Cn1cncn1 (stereo not shown) [F47, tebuconazole]",pest or weed control at 1 ppm,Venturia inaequalis; [4],0%
same,Efficacy in % found,"[1]; Table 6, 31.25 ppm a.i.",78%
same,pest or weed control at 2 ppm,Alternaria solani; [5],35%
same,pest or weed control at 100 ppm,Phytophthora infestans; [6],15%
same,Efficacy in % found,"Puccinia triticina; Table 13, 31.25 ppm a.i.",30%
same,Efficacy in % found,"Puccinia triticina; Table 13, 62.5 ppm a.i.",60%
same,Efficacy in % found,"Septoria tritici; Table 17, 125 ppm a.i.",57%
"O=C(NCCc1ncc(C(F)(F)F)cc1Cl)c1ccccc1C(F)(F)F [F70, fluopyram]",Efficacy in % found,"Venturia inaequalis; Table 21, 1 ppm a.i.",0%
same,Efficacy in % found,"[1]; Table 5, 31.25 ppm a.i.",0%
same,Efficacy in % found,"[1]; Table 5, 62.5 ppm a.i.",0%
same,Efficacy in % found,"Alternaria solani; Table 2, 2 ppm a.i.",40%
same,Efficacy in % found,"Pyrenophora teres; Table 15, 31.25 ppm a.i.",60%
same,Efficacy in % found,"Pyrenophora teres; Table 15, 62.5 ppm a.i.",80%
same,Efficacy in % found,"Septoria tritici; Table 16, 62.5 ppm a.i.",0%
same,Efficacy in % found,"Sphaerotheca fuliginea; Table 19, 1 ppm a.i., 7 days after inoculation",0%
"CC(C)Oc1cccc(NC(=O)c2ccccc2C(F)(F)F)c1 [F71, flutolanil]",pest or weed control at 50 ppm,Venturia inaequalis; [4],0%
same,pest or weed control at 100 ppm,Sphaerotheca fuliginea; [9],20%
same,Efficacy in % found,Botrytis cinerea; 250 ppm a.i.,30%
"Cn1cc(C(=O)Nc2ccccc2-c2cc(F)c(F)c(F)c2)c(C(F)F)n1 [F72, fluxapyroxad]",Efficacy in % found,"Venturia inaequalis; Table 21, 0.25 ppm a.i.",0%
same,Efficacy in % found,"[1]; Table 5, 31.25 ppm a.i.",0%
same,Efficacy in % found,"Alternaria solani; Table 2, 0.5 ppm a.i.",45%
same,Efficacy in % found,"Phytophthora infestans; Table 9, 100 ppm a.i.",0%
same,Efficacy in % found,"Puccinia triticina; Table 12, 15.625 ppm a.i.",22%
same,Efficacy in % found,"Puccinia triticina; Table 12, 31.25 ppm a.i.",22%
same,Efficacy in % found,"Pyrenophora teres; Table 15, 15.625 ppm a.i.",80%
same,Efficacy in % found,"Pyrenophora teres; Table 15, 31.25 ppm a.i.",90%
same,Efficacy in % found,"Septoria tritici; Table 16, 31.25 ppm a.i.",13%
"Cc1nn(C)c(F)c1C(=O)Nc1ccccc1C(C)CC(C)C (stereo not shown) [F84, penflufen]",Efficacy in % found,"Venturia inaequalis; Table 21, 0.5 ppm a.i.",0%
same,Efficacy in % found,"Phytophthora infestans; Table 9, 100 ppm a.i.",8%
same,Efficacy in % found,"Puccinia triticina; Table 12, 31.25 ppm a.i.",67%
same,Efficacy in % found,"Pyrenophora teres; Table 15, 62.5 ppm a.i.",70%
same,Efficacy in % found,"Pyrenophora teres; Table 15, 125 ppm a.i.",60%
same,Efficacy in % found,"Sphaerotheca fuliginea; Table 19, 0.5 ppm a.i., 7 days after inoculation",0%
"CO/C=C(/C(=O)OC)c1ccccc1Oc1cc(Oc2ccccc2C#N)ncn1 [F107, azoxystrobin]",Efficacy in % found,"Venturia inaequalis; Table 22, 0.5 ppm a.i.",84%
same,Efficacy in % found,"[1]; Table 5, 31.25 ppm a.i.",10%
same,Efficacy in % found,"Alternaria solani; Table 3, 2 ppm a.i.",41%
same,Efficacy in % found,"Puccinia triticina; Table 12, 7.8125 ppm a.i.",67%
same,Efficacy in % found,"Pyrenophora teres; Table 15, 15.625 ppm a.i.",60%
same,Efficacy in % found,"Pyrenophora teres; Table 15, 31.25 ppm a.i.",90%
same,Efficacy in % found,"Septoria tritici; Table 16, 15.625 ppm a.i.",13%
same,Efficacy in % found,"Septoria tritici; Table 16, 31.25 ppm a.i.",50%
same,Efficacy in % found,Sphaerotheca fuliginea; [10],37%
"CSC1=N[C@@](C)(c2ccccc2)C(=O)N1Nc1ccccc1 [F114, fenamidone]",pest or weed control at 50 ppm,Venturia inaequalis; [4],0%
same,pest or weed control at 50 ppm,"Alternaria solani; Alternaria solani, topical, 72 h, Table 3, 50 ppm a.i., read-out: Efficacy in % found",62%
same,pest or weed control at 1 ppm,Phytophthora infestans; [6],41%
same,pest or weed control at 100 ppm,"Sphaerotheca fuliginea; Podosphaera fuliginea, 168 h, Table 18, 100 ppm a.i., 7 days after inoculation, read-out: Efficacy in % found",21%
"COC(=O)N(OC)c1ccccc1COc1ccn(-c2ccc(Cl)cc2)n1 [F121, pyraclostrobin]",Efficacy in % found,"Venturia inaequalis; Table 22, 0.5 ppm a.i.",0%
same,Efficacy in % found,"Alternaria solani; Table 3, 2 ppm a.i.",41%
same,Efficacy in % found,"Pyrenophora teres; Table 15, 31.25 ppm a.i.",80%
same,Efficacy in % found,"Septoria tritici; Table 16, 31.25 ppm a.i.",75%
same,Efficacy in % found,Sphaerotheca fuliginea; [10],0%
"CON=C(C(=O)OC)c1ccccc1CON=C(C)c1cccc(C(F)(F)F)c1 [F126, trifloxystrobin]",Efficacy in % found,"Venturia inaequalis; Table 22, 0.5 ppm a.i.",53%
same,Efficacy in % found,"[1]; Table 5, 15.625 ppm a.i.",50%
same,Efficacy in % found,"[1]; Table 5, 31.25 ppm a.i.",60%
same,Efficacy in % found,"Alternaria solani; Table 3, 2 ppm a.i.",47%
same,Efficacy in % found,"Septoria tritici; Table 16, 15.625 ppm a.i.",50%
same,Efficacy in % found,"Septoria tritici; Table 16, 31.25 ppm a.i.",75%
same,Efficacy in % found,Sphaerotheca fuliginea; [10],0%
"O=C(NCc1ncc(C(F)(F)F)cc1Cl)c1c(Cl)cccc1Cl [F143, fluopicolide]",Efficacy in % found,"Venturia inaequalis; Table 22, 50 ppm a.i.",0%
same,Efficacy in % found,"Phytophthora infestans; Table 10, 5 ppm a.i.",21%
"N#Cc1c(Cl)c(Cl)c(Cl)c(C#N)c1Cl [F155, chlorothalonil]",pest or weed control at 10 ppm,Venturia inaequalis; [4],4%
same,pest or weed control at 20 ppm,Phytophthora infestans; [6],0%
same,Efficacy in % found,"Pyrenophora teres; Table 14, 250 ppm a.i.",50%
same,Efficacy in % found,"Septoria tritici; Table 17, 125 ppm a.i.",57%
"N#Cc1ccccc1NC(=O)c1snc(Cl)c1Cl [F187, isotianil]",Efficacy in % found,"Venturia inaequalis; Table 21, 50 ppm a.i.",0%
same,Efficacy in % found,"Alternaria solani; Table 4, 50 ppm a.i.",18%
same,Efficacy in % found,"Septoria tritici; Table 17, 250 ppm a.i.",29%
same,Efficacy in % found,"Septoria tritici; Table 17, 500 ppm a.i.",29%
same,Efficacy in % found,"Sphaerotheca fuliginea; Table 20, 100 ppm a.i., 7 days after inoculation",20%
same,Efficacy in % found,Botrytis cinerea; 125 ppm a.i.,40%
"C#CCOc1ccc(CCNC(=O)C(OCC#C)c2ccc(Cl)cc2)cc1OC (stereo not shown) [F206, mandipropamid]",Efficacy in % found,"Phytophthora infestans; Table 10, 0.25 ppm a.i.",47%
same,Efficacy in % found,Sphaerotheca fuliginea; [11],13%
"CCCOC(=O)NCCCN(C)C [F220, propamocarb hydrochloride]",pest or weed control at 250 ppm,Venturia inaequalis; [4],0%
same,pest or weed control at 250 ppm,"Alternaria solani; Alternaria solani, topical, 72 h, Table 4, 250 ppm a.i., read-out: Efficacy in % found",12%
same,pest or weed control at 500 ppm,Phytophthora infestans; [6],7%
same,pest or weed control at 500 ppm,"Sphaerotheca fuliginea; Podosphaera fuliginea, 168 h, Table 20, 500 ppm a.i., 7 days after inoculation, read-out: Efficacy in % found",10%
"COCC(=O)N(c1c(C)cccc1C)C(C)C(=O)OC (stereo not shown) [F241, metalaxyl]",Efficacy in % found,"Venturia inaequalis; Table 22, 50 ppm a.i.",0%
"COCC(=O)N(c1c(C)cccc1C)[C@H](C)C(=O)OC [F242, metalaxyl-M]",Efficacy in % found,"Venturia inaequalis; Table 22, 50 ppm a.i.",0%
same,Efficacy in % found,Sphaerotheca fuliginea; [11],13%
"N#Cc1c[nH]cc1-c1cccc2c1OC(F)(F)O2 [F248, fludioxonil]",pest or weed control at 50 ppm,Venturia inaequalis; [4],0%
same,pest or weed control at 100 ppm,"Sphaerotheca fuliginea; Podosphaera fuliginea, 168 h, read-out: Efficacy in % found",30%
same,Efficacy in % found,Botrytis cinerea; 2.5 ppm a.i.,26%
"Cn1c(=O)c2sc3c(=O)n(C)c(=O)c3sc2c1=O [F319, 2,6-dimethyl-1H,5H-[1,4]dithiino[2,3-c:5,6-c′]dipyrrole-1,3,5,7(2H,6H)-tetrone]",Efficacy in % found,"Venturia inaequalis; Table 23, 25 ppm a.i.",38%
same,Efficacy in % found,"Alternaria solani; Table 2, 50 ppm a.i.",5%
same,Efficacy in % found,"Phytophthora infestans; Table 11, 50 ppm a.i.",5%
same,Efficacy in % found,"Sphaerotheca fuliginea; Table 19, 50 ppm a.i., 7 days after inoculation",0%
"CNCC(=O)NC(CO)C(=O)NC1C(C(N)=O)OC(n2ccc(N)nc2=O)C(O)C1O [gougerotin, 1-(4-Amino-2-oxo-1(2H)-pyrimidinyl)-1,4-dideoxy-4-[[N—(N-methylglycyl)-D-seryl]amino]-b-D-glucopyranuronamide]",antibacterial activity,[2],weak antibacterial activity
same,parasiticidal action,[3],parasiticidal action
fosetyl-aluminium [F281],Efficacy in % found,"Venturia inaequalis; Table 22, 50 ppm a.i.",0%
same,Efficacy in % found,"Alternaria solani; Table 3, 50 ppm a.i.",15%
same,Efficacy in % found,"Phytophthora infestans; Table 10, 50 ppm a.i.",55%
same,Efficacy in % found,Sphaerotheca fuliginea; [11],13%
mancozeb [F174],Efficacy in % found,"Venturia inaequalis; Table 23, 10 ppm a.i.",0%
same,Efficacy in % found,"Phytophthora infestans; Table 11, 20 ppm a.i.",0%
same,Efficacy in % found,Sphaerotheca fuliginea; [12],0%
phosphorous acid and its salts [F298],Efficacy in % found,"Venturia inaequalis; Table 22, 50 ppm a.i.",0%
same,Efficacy in % found,"Phytophthora infestans; Table 10, 500 ppm a.i.",76%
propineb [F180],Efficacy in % found,"Venturia inaequalis; Table 23, 10 ppm a.i.",81%
same,Efficacy in % found,"Phytophthora infestans; Table 11, 20 ppm a.i.",8%
same,Efficacy in % found,Sphaerotheca fuliginea; [12],0%
